Source: patent US4906623A, “3-Imidazolium cephalosporin derivatives” (Otsuka Kagaku Kabushiki Kaisha, priority 1985, dated 1990)
In brackets after ≈: the same amount, converted by molar mass. Where two headings read alike, the source gives them in different places.

How the values were obtained:
Assay in all cases: in vitro anti-bacterial activity, two-fold agar plate dilution method
Type in all cases: cell-based
Pseudomonas cepacia = conditions: 37° C., 20 hours
Method: (§1) The agent for preventing and treating bacterial infections was tested for in vitro anti-bacterial activity by the following two-fold agar plate dilution method. Each test strain was incubated for 20 hours in a bouillon for measuring sensitivity to obtain a test culture (containing about […]). Portions of sensitivity measuring agar medium containing varying concentrations of the antibacterial agent were each innoculated with a 0.005 ml portion of the culture, followed by incubation at 37° C. for 20 hours. The minimum growth inhibitory concentration (MIC) in μg/ml was then determined.
(§2) MIC=minimum inhibitory concentration

Pseudomonas aeruginosa = test system: Pseudomonas aeruginosa
Method: as §1, §2

[1] = test system: Escherichia coli NIHJ-JC2
Method: as §1, §2

Proteus mirabilis = test system: Proteus mirabilis
Method: as §1, §2

Proteus vulgaris = test system: Proteus vulgaris
Method: as §1, §2

[2] = test system: Escherichia coli CSH(RE45); conditions: 37° C., 20 hours
Method: as §1, §2

[3] = test system: Staphylococcus aureus 209P; conditions: Staphylococcus aureus 209P, agar dilution, 37° C., 20 hours
Method: as §1, §2

Serratia marcescens = test system: Serratia marcescens
Method: as §1, §2

Klebsiella pneumoniae = test system: Klebsiella pneumoniae
Method: as §1, §2

[4] = agar dilution, 37° C., 20 hours
[5] = Escherichia coli NIHJ-JC2, agar dilution, 37° C., 20 hours
[6] = Burkholderia cepacia, read-out: MIC
[7] = agar dilution, 37° C., 20 hours, read-out: MIC
[8] = NIHJJC2, Escherichia coli NIHJ-JC2, agar dilution, 37° C., 20 hours, read-out: MIC

| Molecule | MIC (Pseudomonas cepacia; [6]) | MIC (Pseudomonas aeruginosa; [7]) | MIC [1, 8] | MIC (Proteus mirabilis; [7]) | MIC (Proteus vulgaris; [7]) | MIC ([2]; read-out: MIC) | MIC ([3]; read-out: MIC) | MIC (Serratia marcescens; [7]) | MIC (Proteus mirabilis; 20 h) | MIC (Proteus vulgaris; 20 h) | MIC (Serratia marcescens; 20 h) | MIC (Klebsiella pneumoniae; 20 h) | further results |
| --- | --- | --- | --- | --- | --- | --- | --- | --- | --- | --- | --- | --- | --- |
| 7-{2-(2-aminothiazole-4-yl)-2-[potassium(2,2-dimethylacetate)oxyimino]acetamide}-3-(3-acetophenyl-1-imidazoliomethyl)-3-cephem-4-carboxylate |  |  |  |  |  |  |  |  |  |  |  |  | MIC (Pseudomonas cepacia): 25 µg/mL; MIC (Pseudomonas aeruginosa; [4]): 12.5 µg/mL; MIC [1, 5]: 0.39 µg/mL; MIC (Proteus mirabilis; [4]): 0.2 µg/mL; MIC (Proteus vulgaris; [4]): 0.2 µg/mL; MIC [2]: 0.2 µg/mL; MIC [3]: 6.25 µg/mL; MIC (Serratia marcescens; [4]): 1.56 µg/mL; MIC (Klebsiella pneumoniae; [4]): 1.56 µg/mL |
| C=CCON=C(C(=O)NC1C(=O)N2C(C(=O)[O-])=C(Cn3cc[n+](CC(=O)c4ccccc4)c3)CSC12)c1csc(N)n1 (stereo not drawn) [B, 7-[2-(2-aminothiazole-4-yl)-2-(2-propenyloxyimino)acetamide]-3-(3-acetophenyl-1-imidazoliomethyl)-3-cephem-4-carboxylate] |  |  |  |  |  |  |  |  |  |  |  |  | MIC (Pseudomonas cepacia): 1.56 µg/mL (≈ 2.57 µM); MIC (Pseudomonas aeruginosa; [4]): 6.25 µg/mL (≈ 10.3 µM); MIC [1, 5]: 0.39 µg/mL (≈ 0.642 µM); MIC (Proteus mirabilis; [4]): 0.78 µg/mL (≈ 1.28 µM); MIC (Proteus vulgaris; [4]): 0.78 µg/mL (≈ 1.28 µM); MIC [2]: 0.10 µg/mL (≈ 0.165 µM); MIC [3]: 0.20 µg/mL (≈ 0.329 µM); MIC (Serratia marcescens; [4]): 1.56 µg/mL (≈ 2.57 µM); MIC (Klebsiella pneumoniae; [4]): 0.39 µg/mL (≈ 0.642 µM) |
| C=CCO/N=C(\C(=O)NC1C(=O)N2C(C(=O)[O-])=C(C[n+]3ccn(-c4ccc(O)cc4)c3)CSC12)c1csc(N)n1 (stereo not drawn) [C, 7-[2-(2-aminothiazole-4-yl)-2-(2-propenyloxyimino)acetamide]-3-[3-(4-hydroxyphenyl)-1-imidazoliomethyl]-3-cephem-4-carboxylate] | 6.25 µg/mL (≈ 10.7 µM) | 12.5 µg/mL (≈ 21.5 µM) | 0.39 µg/mL (≈ 0.671 µM) | 0.78 µg/mL (≈ 1.34 µM) | 0.78 µg/mL (≈ 1.34 µM) | 0.2 µg/mL (≈ 0.344 µM) | 0.39 µg/mL (≈ 0.671 µM) | 3.12 µg/mL (≈ 5.36 µM) |  |  |  |  | MIC (Klebsiella pneumoniae; [7]): 0.78 µg/mL (≈ 1.34 µM) |
| C=CCO/N=C(\C(=O)NC1C(=O)N2C(C(=O)[O-])=C(C[n+]3ccn(CC=C)c3)CSC12)c1csc(N)n1 (stereo not drawn) [Compound A, 7-[2-(2-aminothiazole-4-yl)-2-(2-propenyloxyimino)acetamide]-3-[3-(2-propenyl)-1-imidazoliomethyl]-3-cephem-4-carboxylate] | 6.25 µg/mL (≈ 11.8 µM) | 6.25 µg/mL (≈ 11.8 µM) | 0.78 µg/mL (≈ 1.47 µM) |  |  | 0.39 µg/mL (≈ 0.736 µM) | 0.78 µg/mL (≈ 1.47 µM) |  | 3.13 µg/mL (≈ 5.91 µM) | 1.56 µg/mL (≈ 2.95 µM) | 0.78 µg/mL (≈ 1.47 µM) | 1.56 µg/mL (≈ 2.95 µM) |  |
| C#CCn1cc[n+](CC2=C(C(=O)[O-])N3C(=O)C(NC(=O)/C(=N\OC)c4csc(N)n4)C3SC2)c1 (stereo not drawn) [Compound G, 7-[2-(2-aminothiazole-4-yl)-2-methoxyiminoacetamide]-3-[3-(2-propynyl)-1-imidazoliomethyl]-3-cephem-4-carboxylate] | 25 µg/mL (≈ 49.8 µM) | 6.25 µg/mL (≈ 12.5 µM) | 0.05 µg/mL (≈ 0.0997 µM) |  |  | 0.2 µg/mL (≈ 0.399 µM) | 0.78 µg/mL (≈ 1.56 µM) |  | 0.2 µg/mL (≈ 0.399 µM) | 0.2 µg/mL (≈ 0.399 µM) | 1.56 µg/mL (≈ 3.11 µM) | 0.1 µg/mL (≈ 0.199 µM) |  |
| C=Cn1cc[n+](CC2=C(C(=O)[O-])N3C(=O)C(NC(=O)/C(=N\OC(C)(C)C(=O)O)c4csc(N)n4)C3SC2)c1 (stereo not drawn) [Compound M, 7-{2-(2-aminothiazole-4-yl)-2-[potassium(2,2-dimethylacetate)oxyimino]acetamide}-3-(3-vinyl-1-imidazoliomethyl)-3-cephem-4-carboxylate] | 12.5 µg/mL |  | 0.2 µg/mL |  |  | 0.1 µg/mL | 6.25 µg/mL |  | 0.1 µg/mL | 0.1 µg/mL | 0.78 µg/mL | 0.39 µg/mL | MIC (Pseudomonas aeruginosa; 20 h): 3.13 µg/mL |
| C=CCCn1c[n+](CC2=C(C(=O)[O-])N3C(=O)C(NC(=O)/C(=N\OC(C)(C)C(=O)O)c4csc(N)n4)C3SC2)c2ccccc21 (stereo not drawn) [Compound S, 7-{2-(2-aminothiazole-4-yl)-2-[potassium(2,2-dimethylacetate)oxyimino]acetamide}-3-[benz-3-N-(3-butenyl)-1-imidazoliomethyl]-3-cephem-4-carboxylate] | 25 µg/mL | 6.25 µg/mL | 0.78 µg/mL |  |  | 0.39 µg/mL | 0.78 µg/mL |  | 3.13 µg/mL | 0.78 µg/mL | 3.13 µg/mL | 3.13 µg/mL |  |
| C#CCn1cc[n+](CC2=C(C(=O)[O-])N3C(=O)C(NC(=O)/C(=N\OCC=C)c4csc(N)n4)C3SC2)c1 (stereo not drawn) [D, 7-[2-(2-aminothiazole-4-yl)-2-(2-propenyloxyimino)acetamide]-3-[3-(2-propynyl)-1-imidazoliomethyl]-3-cephem-4-carboxylate] | 12.5 µg/mL (≈ 23.7 µM) | 12.5 µg/mL (≈ 23.7 µM) | 0.78 µg/mL (≈ 1.48 µM) | 1.56 µg/mL (≈ 2.96 µM) | 1.56 µg/mL (≈ 2.96 µM) | 0.78 µg/mL (≈ 1.48 µM) | 0.78 µg/mL (≈ 1.48 µM) | 3.13 µg/mL (≈ 5.93 µM) |  |  |  | 0.78 µg/mL (≈ 1.48 µM) |  |
| C=CCO/N=C(\C(=O)NC1C(=O)N2C(C(=O)[O-])=C(C[n+]3ccn(C)c3)CSC12)c1csc(N)n1 (stereo not drawn) [E, 7-[2-(2-aminothiazole-4-yl)-2-(2-propenyloxyimino)acetamide]-3-(3-methyl-1-imidazoliomethyl)-3-cephem-4-carboxylate] | > 50 µg/mL | 12.5 µg/mL (≈ 24.8 µM) | 0.2 µg/mL (≈ 0.397 µM) | 0.78 µg/mL (≈ 1.55 µM) | 0.39 µg/mL (≈ 0.774 µM) | 0.05 µg/mL (≈ 0.0993 µM) | 0.78 µg/mL (≈ 1.55 µM) | 1.56 µg/mL (≈ 3.1 µM) |  |  |  |  | MIC (Klebsiella pneumoniae; [7]): 0.02 µg/mL (≈ 0.0397 µM) |
| C=CCn1cc[n+](CC2=C(C(=O)[O-])N3C(=O)C(NC(=O)/C(=N\OC)c4csc(N)n4)C3SC2)c1 (stereo not drawn) [F, 7-[2-(2-aminothiazole-4-yl)-2-methoxyiminoacetamide]-3-[3-(2-propenyl)-1-imidazoliomethyl]-3-cephem-4-carboxylate] | 50 µg/mL (≈ 99.3 µM) | 25 µg/mL (≈ 49.6 µM) | 0.1 µg/mL (≈ 0.199 µM) |  |  | 0.2 µg/mL (≈ 0.397 µM) | 6.25 µg/mL (≈ 12.4 µM) | 0.78 µg/mL (≈ 1.55 µM) | 0.39 µg/mL (≈ 0.774 µM) | 0.39 µg/mL (≈ 0.774 µM) |  | 0.1 µg/mL (≈ 0.199 µM) |  |
| C=CCn1cc[n+](CC2=C(C(=O)[O-])N3C(=O)C(NC(=O)/C(=N\OC(C)(C)C(=O)O)c4csc(N)n4)C3SC2)c1 (stereo not drawn) [H, 7-{2-(2-aminothiazole-4-yl)-2-[potassium(2,2-dimethylacetate)oxyimino]acetamide}-3-[3-(2-propenyl)-1-imidazoliomethyl]-3-cephem-4-carboxylate] | 6.25 µg/mL | 3.12 µg/mL | 0.2 µg/mL | 0.2 µg/mL | 0.1 µg/mL | 0.1 µg/mL | 5 µg/mL | 0.78 µg/mL |  |  |  |  | MIC (Klebsiella pneumoniae; [7]): 0.78 µg/mL |
| CCCCCCn1cc[n+](CC2=C(C(=O)[O-])N3C(=O)C(NC(=O)/C(=N\OC(C)(C)C(=O)O)c4csc(N)n4)C3SC2)c1 (stereo not drawn) [J, 7-{2-(2-aminothiazole-4-yl)-2-[potassium(2,2-dimethylacetate)oxyimino]acetamide}-3-(3-n-hexyl-1-imidazoliomethyl)-3-cephem-4-carboxylate] | 6.25 µg/mL | 3.12 µg/mL | 0.78 µg/mL |  | 0.2 µg/mL | 0.2 µg/mL | 6.25 µg/mL | 0.78 µg/mL | 0.39 µg/mL |  |  | 1.56 µg/mL |  |
| C#CCn1cc[n+](CC2=C(C(=O)[O-])N3C(=O)C(NC(=O)/C(=N\OC(C)(C)C(=O)O)c4csc(N)n4)C3SC2)c1 (stereo not drawn) [K, 7-{2-(2-aminothiazole-4-yl)-2-[potassium(2,2-dimethylacetate)oxyimino]acetamide}-3-[3-(2-propynyl)-1-imidazoliomethyl]-3-cephem-4-carboxylate] | 0.39 µg/mL |  |  | 0.39 µg/mL | 0.39 µg/mL | 0.39 µg/mL | 12.5 µg/mL |  |  |  | 0.78 µg/mL | 0.78 µg/mL | MIC (Pseudomonas aeruginosa; 20 h): 3.13 µg/mL; MIC ([1]; Escherichia coli, NIHJJC2, 20 h): 0.2 µg/mL |
